In PMC11124870, “Effect of Antioxidants in Medicinal Products on Intestinal Drug Transporters” (Pharmaceutics, 2024):

Key:
P-gp = molecular target: T1, P-gp (Homo sapiens, UniProt P08183); experiment: Vesicular transport assay, 3H-NMQ uptake in P-gp membrane vesicles; type: biochemical
T1 construct: purchased ThermoFisher Scientific GM0015; host or cells: Sf9 membrane vesicles
Protocol: (§1) The vesicular transport assay was performed using Spodoptera frugiperda 9 (Sf9) membrane vesicles overexpressing human P-gp or BCRP, as reported previously with minor modifications. In brief, Isoplate 96-well flat-bottom white plates were preincubated with HBSS containing 0.5 mg/mL BSA on an orbital shaker in a 37 °C incubator at 90 rpm for 60 min followed by washing with HBSS. The assay mixture (75 µL/well) contained a probe substrate and either vehicle control, a known inhibitor of P-gp or BCRP, or an antioxidant, in vesicle uptake buffer (50 mM MOPS-Tris, pH 7.0 + 70 mM KCl + 7.5 mM MgCl2) prewarmed to 37 °C. After addition of the assay mixture, 5 μL/well (5 μg/μL stock concentration of the vesicles) of vesicles overexpressing human P-gp or BCRP was added. Uptake assays were initiated by adding 20 μL of either 25 mM adenosine triphosphate (ATP) or 25 mM adenosine monophosphate (AMP) to a final concentration of 5 mM. Plates were incubated at 37 °C for 20 min with orbital shaking (90 rpm). After 20 min, the uptake was quenched by adding 150 μL of ice-cold wash buffer (40 mM MOPS-Tris, pH 7.0 + 70 mM KCl) to each well, and the mixture was transferred to a 96-well filtration plate. Vacuum was applied, and the vesicles were washed three times with wash buffer. Vesicles were then lysed with 100 µL of MicroScint-20.

BCRP = molecular target: T2, BCRP (Homo sapiens, UniProt Q9UNQ0); experiment: Vesicular transport assay, 3H-CCK8 uptake in BCRP membrane vesicles; type: biochemical; parameters: purchased ThermoFisher Scientific GM0008; host or cells: Sf9 membrane vesicles
T2 sequence (Q9UNQ0 1-655): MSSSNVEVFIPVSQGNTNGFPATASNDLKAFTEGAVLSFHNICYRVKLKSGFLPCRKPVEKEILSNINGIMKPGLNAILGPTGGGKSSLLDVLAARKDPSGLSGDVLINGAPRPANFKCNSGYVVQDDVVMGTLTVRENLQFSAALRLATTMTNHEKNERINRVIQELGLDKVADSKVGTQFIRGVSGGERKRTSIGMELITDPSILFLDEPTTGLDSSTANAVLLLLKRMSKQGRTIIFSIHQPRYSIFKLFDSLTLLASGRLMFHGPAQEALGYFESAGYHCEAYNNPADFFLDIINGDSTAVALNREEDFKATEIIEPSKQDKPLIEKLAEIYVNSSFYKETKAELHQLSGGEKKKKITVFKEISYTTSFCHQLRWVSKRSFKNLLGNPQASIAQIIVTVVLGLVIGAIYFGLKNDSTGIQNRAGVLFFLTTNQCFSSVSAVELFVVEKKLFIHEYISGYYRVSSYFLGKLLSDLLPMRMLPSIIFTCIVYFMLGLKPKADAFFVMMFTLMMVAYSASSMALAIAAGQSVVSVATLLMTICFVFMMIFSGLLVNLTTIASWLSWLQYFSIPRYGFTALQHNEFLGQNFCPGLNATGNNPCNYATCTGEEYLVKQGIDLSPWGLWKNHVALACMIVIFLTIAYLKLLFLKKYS
Protocol: as §1

[1] = antioxidant 200 µM, uptake with DMSO set as 100%, mean ± SD, three replicates, membrane vesicles

T1 sequence (P08183 whole entry): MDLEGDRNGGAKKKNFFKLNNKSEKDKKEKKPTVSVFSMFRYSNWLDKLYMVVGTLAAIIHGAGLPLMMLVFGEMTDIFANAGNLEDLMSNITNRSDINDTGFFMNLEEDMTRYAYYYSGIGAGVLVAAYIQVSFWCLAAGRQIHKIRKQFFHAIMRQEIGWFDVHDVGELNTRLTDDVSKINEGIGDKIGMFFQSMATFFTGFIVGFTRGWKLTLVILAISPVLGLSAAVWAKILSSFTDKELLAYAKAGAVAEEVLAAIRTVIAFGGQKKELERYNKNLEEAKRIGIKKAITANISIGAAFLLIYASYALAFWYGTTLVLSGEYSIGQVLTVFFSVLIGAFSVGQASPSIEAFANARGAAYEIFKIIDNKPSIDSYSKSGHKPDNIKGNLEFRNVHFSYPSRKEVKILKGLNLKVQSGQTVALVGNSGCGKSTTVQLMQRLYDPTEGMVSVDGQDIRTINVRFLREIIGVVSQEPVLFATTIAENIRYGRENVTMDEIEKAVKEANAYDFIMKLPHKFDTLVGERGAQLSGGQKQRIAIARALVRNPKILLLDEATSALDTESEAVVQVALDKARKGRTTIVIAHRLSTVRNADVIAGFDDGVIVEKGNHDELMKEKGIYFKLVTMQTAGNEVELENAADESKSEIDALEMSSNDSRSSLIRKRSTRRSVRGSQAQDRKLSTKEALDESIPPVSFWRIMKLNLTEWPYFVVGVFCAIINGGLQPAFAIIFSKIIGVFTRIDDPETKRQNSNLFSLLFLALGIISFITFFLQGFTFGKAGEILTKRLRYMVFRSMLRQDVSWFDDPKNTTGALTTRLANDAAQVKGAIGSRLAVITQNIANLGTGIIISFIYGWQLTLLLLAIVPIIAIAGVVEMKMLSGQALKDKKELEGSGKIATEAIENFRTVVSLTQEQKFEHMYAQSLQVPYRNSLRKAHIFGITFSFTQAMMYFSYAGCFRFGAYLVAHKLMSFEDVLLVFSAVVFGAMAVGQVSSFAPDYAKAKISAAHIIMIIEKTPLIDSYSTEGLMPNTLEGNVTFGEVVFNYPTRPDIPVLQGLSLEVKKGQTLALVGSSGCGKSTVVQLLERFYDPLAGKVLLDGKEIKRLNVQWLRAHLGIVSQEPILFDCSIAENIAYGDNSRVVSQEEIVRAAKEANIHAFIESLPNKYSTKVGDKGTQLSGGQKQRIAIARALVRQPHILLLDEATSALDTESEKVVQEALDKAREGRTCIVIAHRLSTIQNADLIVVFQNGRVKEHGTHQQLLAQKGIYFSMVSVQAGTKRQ

**Q.** Which results are given for `COc1ccc(O)cc1C(C)(C)C` [Butylated hydroxyanisole (BHA), 2-tert-Butyl-4-hydroxyanisole]?
**A.** Inhibition of P-gp (P-gp; 200 µM, 3H-NMQ): at least 50%; % Uptake of 3H-NMQ P-gp (P-gp; [1]): 42.1 ± 5.7%; IC50 (P-gp; substrate 3H-NMQ, mean ± SD of three independent experiments): 182 ± 49 µM; Inhibition of BCRP (BCRP; 200 µM, 3H-CCK8): at least 50%; % Uptake of 3H-CCK8 BCRP (BCRP; [1]): 46.7 ± 5.5%; IC50 (BCRP; substrate 3H-CCK8, mean ± SD of three independent experiments): 206 ± 14 µM
